Data taken from the supplement of paper PMC10307832.

How the values were obtained:
Experiment in all cases: relative viability (nuclei count vs DMSO), 5 days (fraction); higher = more cells survive
[1] = compound: O=C(NC1CCNCC1)c1n[nH]cc1NC(=O)c1c(Cl)cccc1Cl [AT-7519] + CS(=O)(=O)CCNCc1ccc(-c2ccc3ncnc(Nc4ccc(OCc5cccc(F)c5)c(Cl)c4)c3c2)o1 [Lapatinib] (partner 2 µM)
Method in brief: (§1)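 One day after seeding in 1536-well plates, lung cancer cell lines were dosed by pin tool. Dosing was either single-drug or a fixed anchor-drug dose plus five library-drug doses (not always all listed) in √10 steps. After 5 days, nuclei were stained in one fix-and-stain step and counted on 4× images, and relative viability is the nuclei count of treated wells over that of vehicle wells, given as the median of duplicate plates.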

[2] = compound: C1=CC2=C(C=C(C(=C2N=C1)O)N=NC3=CC4=C(C=C3)C=C(C=C4)S(=O)(=O)O)S(=O)(=O)O + N=C(N)NC(=N)NCCc1ccccc1 [Phenformin] (partner 250 µM)
Method in brief: as §1

[3] = compound: C1=CC2=C(C=C(C(=C2N=C1)O)N=NC3=CC4=C(C=C3)C=C(C=C4)S(=O)(=O)O)S(=O)(=O)O + Cc1cc(Nc2cc(N3CCN(C)CC3)nc(Sc3ccc(NC(=O)C4CC4)cc3)n2)n[nH]1 [Tozasertib] (partner 0.1 µM)
Method in brief: as §1

[4] = compound: O=C(NC1CCNCC1)c1n[nH]cc1NC(=O)c1c(Cl)cccc1Cl [AT-7519] + CC(C)C[C@H](NC(=O)[C@H](Cc1ccccc1)NC(=O)c1cnccn1)B(O)O [Bortezomib] (partner 0.002 µM)
Method in brief: as §1

Cell Line	relative viability ([1]; first compound 0.01 µM)	relative viability ([1]; first compound 0.03162 µM)	relative viability ([1]; first compound 0.3162 µM)	relative viability ([1]; first compound 1 µM)	relative viability ([2]; first compound 0.08 µM)	relative viability ([2]; first compound 0.253 µM)	relative viability ([2]; first compound 0.8 µM)	relative viability ([2]; first compound 2.53 µM)	relative viability ([2]; first compound 8 µM)	relative viability ([3]; first compound 0.08 µM)	relative viability ([3]; first compound 0.253 µM)	relative viability ([3]; first compound 0.8 µM)	relative viability ([3]; first compound 2.53 µM)	relative viability ([3]; first compound 8 µM)	relative viability ([4]; first compound 0.01 µM)	relative viability ([4]; first compound 0.03162 µM)	relative viability ([4]; first compound 0.3162 µM)	relative viability ([4]; first compound 1 µM)
201T	1.06	1.03	1.07	1.06	0.458	0.426	0.458	0.433	0.306	1.03	0.901	0.987	0.967	0.934	1.08	1.03	1.1	1.09
A549	0.879	1.01	0.856	0.349	0.203	0.155	0.189	0.186	0.0602									
A-427	1.1	0.989	1.03	0.929	0.324	0.293	0.283	0.288	0.313	0.235	0.216	0.207	0.239	0.252	1.02	0.961	1.04	0.792
ABC-1	0.984	0.909	0.986	0.966	0.236	0.245	0.236	0.237	0.245	0.155	0.199	0.176	0.167	0.132	0.291	0.337	0.259	0.231
BEN	0.834	0.68	0.781	0.55	0.254	0.274	0.267	0.298	0.234	0.55	0.535	0.572	0.548	0.47	0.958	0.766	0.935	0.82
CAL-12T		0.538	0.386	0.186	0.536	0.522	0.502	0.693	0.358	0.29	0.34	0.378	0.327	0.296		0.929	0.593	0.336
COR-L23	1.14	0.786	0.325	0.121	0.488	0.43	0.422	0.419	0.45	0.22	0.173	0.247	0.197	0.233	0.994	0.863	0.82	0.2
COR-L 105	0.397	0.397	0.319	0.293	0.459	0.464	0.421	0.441	0.463	0.355	0.37	0.367	0.361	0.378	0.75	0.898	0.65	0.344
Calu-6	1.12	1.07	0.988	0.18											1.11	0.975	1	0.328
ChaGo-K-1					0.444	0.491	0.525	0.531	0.359	0.238	0.198	0.205	0.205	0.244	1.03	1.37	0.763	0.96
EBC-1	0.234	0.2	0.213	0.178											0.615	0.551	0.443	0.23
EKVX	0.203	0.198	0.186	0.172	0.237	0.225	0.235	0.232	0.139	0.458	0.44	0.34	0.446	0.389	0.978	0.911	0.996	1.13
EMC-BAC-2	0.866	0.85	0.889	0.886	0.587	0.561	0.514	0.526	0.427	0.303	0.29	0.303	0.337	0.302	1.04	1.07	1.01	1.07
EPLC-272H	0.979	0.913	0.652	1.07	0.284	0.319	0.292	0.28	0.323	0.351	0.365	0.203	0.273	0.325	1.03	0.973	0.723	0.812
H3255	0.282	0.232	0.294	0.212	0.348	0.377	0.416	0.394	0.421	0.59	0.705	0.655	0.604	0.864	0.904	0.825	0.984	0.766
HARA	0.804	0.622	0.604	0.681	0.467	0.459	0.464	0.544	0.479	0.105	0.107	0.102	0.111	0.117	1.14	1.16	1.1	1.06
HCC-15	0.891	0.828	0.692	0.5	0.491	0.481	0.457	0.422	0.444	0.462	0.458	0.422	0.441	0.45	1.07	1.01	0.852	0.977
HCC-44	0.984	1.05	1.1	0.979	0.126	0.218	0.249	0.17	0.184		0.853	0.999	1.03	0.873	0.752	1.02	1.01	0.979
HCC-78	0.837	0.79	1.08	0.878	0.725	0.617	0.651	0.74	0.685	0.41	0.345	0.469	0.488	0.349	0.479	0.38	0.6	0.516

Cell Line	relative viability ([1]; first compound 0.01 µM)	relative viability ([1]; first compound 0.03162 µM)	relative viability ([1]; first compound 0.3162 µM)	relative viability ([1]; first compound 1 µM)	relative viability ([2]; first compound 0.08 µM)	relative viability ([2]; first compound 0.253 µM)	relative viability ([2]; first compound 0.8 µM)	relative viability ([2]; first compound 2.53 µM)	relative viability ([2]; first compound 8 µM)	relative viability ([3]; first compound 0.08 µM)	relative viability ([3]; first compound 0.253 µM)	relative viability ([3]; first compound 0.8 µM)	relative viability ([3]; first compound 2.53 µM)	relative viability ([3]; first compound 8 µM)	relative viability ([4]; first compound 0.01 µM)	relative viability ([4]; first compound 0.03162 µM)	relative viability ([4]; first compound 0.3162 µM)	relative viability ([4]; first compound 1 µM)
IA-LM	0.911	0.821	0.658	0.0627											0.927	0.979	0.781	0.302
LCLC-103H					0.33	0.356	0.298	0.358	0.369	0.514	0.504	0.457	0.477	0.501	1.01	1.05	1.07	1.2
LK-2	0.816	0.951	0.706	0.706	0.639	0.36	0.303	0.381	0.332	0.174	0.189	0.18	0.178	0.148				
NCI-H358	0.406	0.447	0.335	0.198	0.35	0.35	0.339	0.345	0.327	0.126	0.0956	0.0998	0.103	0.102				
NCI-H441					0.918	0.761	0.731	0.947	0.821	0.636	0.685	0.644	0.712	0.605	0.449	0.394	0.671	0.497
NCI-H522					0.658	0.64	0.71	0.603	0.612	0.583	0.556	0.609	0.539	0.631				
NCI-H1299	0.994	0.977	0.975	0.58											1.05	0.996	1.05	1.28
NCI-H1395	1.03	1.14	0.802	0.602	0.442	0.405	0.473	0.45	0.452	0.788	0.739	0.695	0.745	0.772				
NCI-H1563	0.923	0.971	1.07	1.01	0.63	0.677	0.684	0.626	0.629						0.874	0.905	0.901	0.85
NCI-H1623					0.565	0.541	0.609	0.589	0.278	0.432	0.416	0.458	0.506	0.428				
NCI-H1648										0.432	0.422	0.615	0.533	0.507				
NCI-H1703	1.03	0.955	0.821	0.206											0.392	0.323	0.182	0.151
NCI-H1792	0.673	0.845	0.98	0.94	0.261	0.343	0.254		0.295						0.752	0.89	0.882	0.888
NCI-H1793	0.554	0.713	0.421	0.226	0.416	0.416	0.346	0.442	0.379	0.436	0.301	0.395	0.449	0.396				
NCI-H1944	0.807	0.775	0.84	0.864	0.237	0.199	0.19	0.199	0.193	0.263	0.241	0.263	0.241	0.237				
NCI-H2170	0.289	0.305	0.278	0.249	0.46	0.404	0.417	0.424	0.391	0.678	0.714	0.753	0.774	0.638				
NCI-H2342					0.629	0.582	0.537	0.621	0.528	0.52	0.576	0.566	0.465	0.569				
SK-MES-1	0.455	0.468	0.451	0.392	0.731	0.674	0.672	0.692	0.652	1.01	0.888	0.804	0.924	0.935				
SW 900					0.576	0.669	0.517	0.552	0.275	0.566	0.559	0.536	0.599	0.469				
